Several values for one entry are separate records, joined by “and”; a condition that tells them apart may be missing. Equal values may be shown once.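 In this assay, cells in 96-well plates receive the compound at five concentrations for 48 hours. Endpoints are linearly interpolated between the surrounding concentrations. GI50 is the concentration that inhibits growth by half. TGI: concentration producing complete growth inhibition.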
Tests used:
Experiment in all cases: NCI tumour cell line growth inhibition, 48 h
TK-10 renal = test system: TK-10 renal
SW-620 colon = test system: SW-620 colon
M14 melanoma = test system: M14 melanoma
MDA-MB-435 = test system: MDA-MB-435
CCRF-CEM leukemia = test system: CCRF-CEM leukemia
NCI-H460 lung = test system: NCI-H460 lung
HCT-116 colon = test system: HCT-116 colon
MALME-3M melanoma = test system: MALME-3M melanoma
U251 CNS = test system: U251 CNS
SK-OV-3 ovarian = test system: SK-OV-3 ovarian

CCNC(=O)c1cc2c(-c3cc(C(C)(C)O)ccc3Oc3c(C)cc(F)cc3C)cn(C)c(=O)c2[nH]1
GI50 (TK-10 renal): 0.298 µM
TGI (TK-10 renal): 10.6 µM
GI50 (SW-620 colon): 3.56 µM
TGI (SW-620 colon): 21 µM
GI50 (M14 melanoma): 1.46 µM
TGI (M14 melanoma): 14.2 µM
GI50 (MDA-MB-435): 1.41 µM
TGI (MDA-MB-435): 14.3 µM
GI50 (CCRF-CEM leukemia): 2.21 µM
TGI (CCRF-CEM leukemia): 23.9 µM
GI50 (NCI-H460 lung): 3.3 µM
TGI (NCI-H460 lung): 17.6 µM
GI50 (HCT-116 colon): 1.32 µM
TGI (HCT-116 colon): 12.5 µM
GI50 (MALME-3M melanoma): 2.15 µM
TGI (MALME-3M melanoma): 15.2 µM
GI50 (U251 CNS): 2.09 µM
TGI (U251 CNS): 16.7 µM

Nc1nc(-c2ccc(F)cc2)c(-c2ccc3ncccc3n2)s1
GI50 (TK-10 renal): 5.62 µM
TGI (TK-10 renal): 17.1 µM
GI50 (SW-620 colon): > 25 µM
TGI (SW-620 colon): > 25 µM
GI50 (M14 melanoma): > 25 µM
TGI (M14 melanoma): > 25 µM
GI50 (MDA-MB-435): > 25 µM
TGI (MDA-MB-435): > 25 µM
GI50 (CCRF-CEM leukemia): > 22.1 µM
TGI (CCRF-CEM leukemia): > 25 µM
GI50 (NCI-H460 lung): 8.7 µM
TGI (NCI-H460 lung): > 25 µM
GI50 (HCT-116 colon): > 25 µM
TGI (HCT-116 colon): > 25 µM
GI50 (MALME-3M melanoma): 19.6 µM
TGI (MALME-3M melanoma): > 25 µM
GI50 (SK-OV-3 ovarian): 6.82 µM
TGI (SK-OV-3 ovarian): > 25 µM
GI50 (U251 CNS): > 24.1 µM
TGI (U251 CNS): > 25 µM

CN(CC(=O)N(Cc1ccc(C2CCCCC2)cc1)c1ccc(C(=O)O)c(O)c1)S(=O)(=O)c1c(F)c(F)c(F)c(F)c1F
GI50 (TK-10 renal): 16.5 µM
TGI (TK-10 renal): 30.4 µM
GI50 (SW-620 colon): 1.71 µM
TGI (SW-620 colon): 3.23 µM
GI50 (M14 melanoma): 3.07 µM
TGI (M14 melanoma): 13 µM
GI50 (MDA-MB-435): 3.39 µM
TGI (MDA-MB-435): 15.8 µM
GI50 (CCRF-CEM leukemia): 1.84 µM
TGI (CCRF-CEM leukemia): 4.69 µM
GI50 (NCI-H460 lung): 16.4 µM
TGI (NCI-H460 lung): 36.5 µM
GI50 (HCT-116 colon): 3.72 µM
TGI (HCT-116 colon): 11.9 µM
GI50 (MALME-3M melanoma): 2.89 µM
TGI (MALME-3M melanoma): 12.3 µM
GI50 (SK-OV-3 ovarian): 16.5 µM
TGI (SK-OV-3 ovarian): 31.1 µM
GI50 (U251 CNS): 1.81 µM
TGI (U251 CNS): 3.82 µM

COc1cc(COC(=O)N(CC(=O)O)c2ccccc2)c([N+](=O)[O-])cc1OC
TGI (TK-10 renal): > 100 µM
TGI (SW-620 colon): > 100 µM
TGI (M14 melanoma): > 100 µM
TGI (MDA-MB-435): > 100 µM
TGI (CCRF-CEM leukemia): > 100 µM
TGI (NCI-H460 lung): > 100 µM
TGI (MALME-3M melanoma): > 100 µM
TGI (SK-OV-3 ovarian): > 100 µM
TGI (U251 CNS): > 100 µM

COc1ccc(OC)c(/C=C(/C)[N+](=O)[O-])c1
GI50 (TK-10 renal): 1.96 µM
TGI (TK-10 renal): 3.47 µM
GI50 (SW-620 colon): 1.79 µM
TGI (SW-620 colon): 3.78 µM
GI50 (M14 melanoma): 2.14 µM
TGI (M14 melanoma): 4.24 µM
GI50 (MDA-MB-435): 2.29 µM
TGI (MDA-MB-435): 6.8 µM
GI50 (CCRF-CEM leukemia): 2.66 µM
TGI (CCRF-CEM leukemia): > 100 µM
GI50 (NCI-H460 lung): 3.41 µM
TGI (NCI-H460 lung): 12.7 µM
GI50 (HCT-116 colon): 1.88 µM
TGI (HCT-116 colon): 3.54 µM
GI50 (MALME-3M melanoma): 1.81 µM
TGI (MALME-3M melanoma): 3.61 µM
GI50 (SK-OV-3 ovarian): 6.41 µM
TGI (SK-OV-3 ovarian): 19 µM
GI50 (U251 CNS): 1.68 µM
TGI (U251 CNS): 3.18 µM

NC(=O)c1ccc2nc(-c3ccc(Oc4ccc(Cl)cc4)cc3)[nH]c2c1
GI50 (TK-10 renal): 8.61 µM and 16.4 µM
TGI (TK-10 renal): 75 µM and 39.9 µM
GI50 (SW-620 colon): 23 µM and 9.61 µM
TGI (SW-620 colon): 75 µM and 25.9 µM
GI50 (M14 melanoma): 19.9 µM and 14.8 µM
TGI (M14 melanoma): 75 µM and 29.8 µM
GI50 (MDA-MB-435): 34.4 µM and 14.5 µM
TGI (MDA-MB-435): 75 µM and 31.2 µM
GI50 (CCRF-CEM leukemia): 23.5 µM and 15.7 µM
TGI (CCRF-CEM leukemia): 75 µM and 64.1 µM
GI50 (NCI-H460 lung): 23.4 µM and 14.1 µM
TGI (NCI-H460 lung): 75 µM and 32.7 µM
GI50 (HCT-116 colon): 8.14 µM and 12.3 µM
TGI (HCT-116 colon): 75 µM and 33.4 µM
GI50 (MALME-3M melanoma): 32.4 µM and 18.2 µM
TGI (MALME-3M melanoma): 75 µM and 33.6 µM
GI50 (SK-OV-3 ovarian): 17.7 µM and 23.1 µM
TGI (SK-OV-3 ovarian): 75 µM and 48.2 µM
GI50 (U251 CNS): 56.6 µM and 9.01 µM
TGI (U251 CNS): 75 µM and 22.6 µM

c1csc(-c2cc(-c3cccs3)c(-c3cccs3)s2)c1
TGI (TK-10 renal): > 100 µM
TGI (SW-620 colon): > 100 µM
TGI (M14 melanoma): > 100 µM
TGI (MDA-MB-435): > 100 µM
TGI (CCRF-CEM leukemia): > 100 µM
TGI (NCI-H460 lung): > 100 µM
TGI (HCT-116 colon): > 100 µM
TGI (MALME-3M melanoma): > 100 µM
TGI (SK-OV-3 ovarian): > 100 µM
TGI (U251 CNS): > 100 µM

From PubChem BioAssay (NCI)
